# Measured values taken from patent US11976083B2, “Inhibitors of peptidylarginine deiminases” (Gilead Sciences, Inc., priority 2020, dated 2024).
# Biological target: T1, human PAD4 (Homo sapiens, UniProt Q9UM07)
# T1 construct: human PAD4 (NM_012387), A2-P663, was PCR amplified; His-SUMO (N, cleaved yes); made in house; host or cells: E. coli BL21(DE3)
# Test: In vitro PAD4 BAEE biochemical assay
# Conditions: BAEE substrate 3 mM, 5 nM PAD4, 2 mM calcium chloride; geometric mean of multiple experiments
# How it was run: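 Ammonia produced by BAEE deimination (3 mM substrate, 2 h, 25 °C) was read as fluorescent isoindole after o-phthalaldehyde/DTT derivatization, ex 405 nm/em 535 nm. Human PAD4 at 5 nM final, 2 mM calcium, pH 7.6 MOPS; compound preincubated 30 min. IC50s, normalized to BB-Cl-Amidine and DMSO controls, were geometric-mean averaged.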
# T1 sequence (Q9UM07 2-663): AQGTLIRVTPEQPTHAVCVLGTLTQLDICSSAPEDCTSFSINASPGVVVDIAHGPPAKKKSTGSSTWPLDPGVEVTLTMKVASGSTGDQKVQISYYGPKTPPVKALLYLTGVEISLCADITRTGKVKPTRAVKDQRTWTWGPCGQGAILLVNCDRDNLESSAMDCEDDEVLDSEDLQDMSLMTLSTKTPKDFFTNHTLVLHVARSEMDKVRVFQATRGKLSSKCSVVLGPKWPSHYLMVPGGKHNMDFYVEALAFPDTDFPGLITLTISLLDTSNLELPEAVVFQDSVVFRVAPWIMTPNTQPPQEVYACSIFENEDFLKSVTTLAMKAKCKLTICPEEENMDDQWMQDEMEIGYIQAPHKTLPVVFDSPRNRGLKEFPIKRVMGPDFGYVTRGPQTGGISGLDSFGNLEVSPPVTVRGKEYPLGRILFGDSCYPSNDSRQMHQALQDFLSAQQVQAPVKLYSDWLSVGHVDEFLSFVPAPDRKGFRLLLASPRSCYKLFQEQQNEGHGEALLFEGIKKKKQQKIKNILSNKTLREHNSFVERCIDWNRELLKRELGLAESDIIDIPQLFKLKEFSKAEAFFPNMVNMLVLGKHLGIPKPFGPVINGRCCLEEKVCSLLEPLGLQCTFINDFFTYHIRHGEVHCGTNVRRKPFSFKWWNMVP
row,SMILES,IC50
1,"COc1cc(C(=O)N2CC[C@@H](OC(F)F)[C@@H](N)C2)cc2nc(-c3cc4ccc5nc4n3CCCCCC[C@@](C)(C(F)(F)F)C(=O)N[C@@H]5C)n(C)c12 [Example 723, (8~{R},11~{R})-17-[5-[(3~ {S},4~{R})-3-amino-4-(difluoromethoxy)piperidine-1-carbonyl]-7-methoxy-1-methyl-benzimidazol-2-yl]-8,11-dimethyl-8-(trifluoromethyl)-1,10,19-triazatricyclo[10.5.2.0^ {15,18}]nonadeca-12(19), 13,15(18),16-tetraen-9-one]",0.309 µM
2,"COc1cc(C(=O)N2CCC[C@@H](N)[C@H]2C)cc2nc(-c3cc4ccc5nc4n3CC(F)(F)CCCc3cncc(F)c3C(=O)N[C@@H]5C)n(C)c12 [Example 679, (2~{R})-17-[5-[(2~{R},3~ {R})-3-amino-2-methyl-piperidine-1-carbonyl]-7-methoxy-1-methyl-benzimidazol-2-yl]-6,14,14-trifluoro-2-methyl-3,8,16,22-tetrazatetracyclo[14.5.2.0^ {5,10).0^{19,23}] tricosa-1(22),5(10),6,8,17, 19(23),20-heptaen-4-one]",0.033 µM
3,"COc1cc(C(=O)N2CCC[C@@H](N)C2)cc2nc(-c3cc4ccc5cc4n3CCCCCCC(C)(C)C(=O)N[C@@H]5C)n(C3CC3)c12 [Example 160, (11~{R})-17-[5-[(3~{R})-3-aminopiperidine-1-carbonyl]-1-cyclopropyl-7-methoxy-benzimidazol-2-yl]-8,8,11-trimethyl-1,10-diazatricyclo[10.5.2.0^{15,18}]nonadeca-12(19),13,15(18),16-tetraen-9-one]",0.053 µM
4,"COc1cc(C(=O)N2CC[C@@H](OC)[C@@H](N)C2)cc2nc(-c3cc4ccc5nc4n3CCCCC[C@@H]3C[C@H]3C(=O)NC53CC3)n(C)c12 [Example 787, (5~{R},7~{R})-14-[5-[(3~{S}, 4~{R})-3-amino-4-methoxy-piperidine-1-carbonyl]-7-methoxy-1-methyl-benzimidazol-2-yl]spiro[3,13,19-triazatetracyclo[11.5.2.0^ {5,7}.0^{16,20}]icosa-1(18),14,16,19-tetraene-2,1′-cyclopropane]-4-one]",0.094 µM
5,"COc1cc(C(=O)N2CC[C@@H](OC(F)(F)F)[C@@H](N)C2)cc2nc(-c3cc4ccc5nc4n3CCCCC[C@@H]3C[C@H]3C(=O)N[C@@H]5C)n(C)c12 [Example 582, (2~{R},5~{R},7~{R})-14-[5-[(3~{S},4~{R})-3-amino-4-(trifluoromethoxy)piperidine-1-carbonyl]-7-methoxy-1-methyl-benzimidazol-2-yl]-2-methyl-3,13,19-triazatetracyclo[11.5.2.0^ {5,7}.0^{16,20}]icosa-1(19), 14,16(20),17-tetraen-4-one]",0.271 µM
6,"COc1cc(C(=O)N2CC[C@@H](OC)[C@@H](N)C2)cc2nc(-c3cc4ccc5nc4n3CCCCCC[C@@](C)(c3ccccn3)C(=O)N[C@@H]5C)n(C)c12 [Example 862, (8~{S},11~{R})-17-[5-[(3~{S}, 4~{R})-3-amino-4-methoxy-piperidine-1-carbonyl]-7-methoxy-1-methyl-benzimidazol-2-yl]-8,11-dimethyl-8-(2-pyridyl)-1,10,19-triazatricyclo[10.5.2.0^{15,18}] nonadeca-12(19), 13,15(18),16-tetraen-9-one]",0.078 µM
7,"COc1cc(C(=O)N[C@@H]2CC[C@H](C)NC2)cc2nc(-c3cc4ccc5nc4n3CCCCCCC(C)(C)C(=O)N[C@@H]5C)n(C)c12 [Example 73, 7-methoxy-1-methyl-~{N}-[(3~{R},6~{S})-6-methyl-3-piperidyl]-2-[(11~{R})-8,8,11-trimethyl-9-oxo-1,10,19-triazatricyclo[10.5.2.0^{15,18}]nonadeca-12(19),13,15(18),16-tetraen-17-yl]benzimidazole-5-carboxamide]",0.125 µM
8,"COc1cc(C(=O)N2CCC[C@@H](N)C2)cc2nc(-c3cc4ccc5nc4n3C[C@H]3C[C@H]3COCCC(=O)N[C@@H]5C)n(C)c12 [Example 304, (3~{S),5~{R},12~{R})-18-[5-[(3~{R})-3-aminopiperidine-1-carbonyl]-7-methoxy-1-methyl-benzimidazol-2-yl]-12-methyl-7-oxa-1,11,20-triazatetracyclo[11.5.2.0^{3,5}.0^{16,19}] icosa-13(20),14,16(19),17-tetraen-10-one]",0.07 µM
9,"COc1cc(C(=O)N2CC[C@@H](OC)[C@@H](N)C2)cc2nc(-c3cc4ccc5nc4n3CCCCCc3nccc(F)c3C(=O)N[C@@H]5C)n(C)c12 [Example 656, (2˜{R})-17-[5-[(3˜{S},4˜{R})-3-amino-4-methoxy-piperidine-1-carbonyl]-7-methoxy-1-methyl-benzimidazol-2-yl]-6-fluoro-2-methyl-3,9,16,22-tetrazatetracyclo[14.5.2.0^{5,10}.0^{19,23}]tricosa-1(22),5,7,9,17,19(23),20-heptaen-4-one]",0.124 µM

# More lines, now with the values ahead:
row,IC50,SMILES
1,0.103 µM,"COc1cc(C(=O)N2[C@H]3CC[C@@H]2[C@H](N)C3)cc2nc(-c3cc4ccc5nc4n3CCCCCCC(C)(C)C(=O)N[C@@H]5C)n(C3CC3)c12 [Example 253, (11~{R})-17-[5-[(1~{R},2~{R},4~{S})-2-amino-7-azabicyclo[2.2.1]heptane-7-carbonyl]-1-cyclopropyl-7-methoxy-benzimidazol-2-yl]-8,8,11-trimethyl-1,10,19-triazatricyclo[10.5.2.0^{15,18}]nonadeca-12(19),13,15(18),16-tetraen-9-one]"
2,0.029 µM,"C[C@H]1NC(=O)[C@@H]2C[C@H]2CCCC(F)(F)Cn2c(-c3nc4cc(C(=O)N5C[C@H](N)[C@@H]6CC[C@H]5C6)cc(F)c4n3[C@H]3C[C@H]3C(F)F)cc3ccc1nc32 [Example 755, (2~{R},5~{R},7~{R})-14-[5-[(1~{S},4~{R},5~{R})-4-amino-2-azabicyclo[3.2.1]octane-2-carbonyl]-1-[(1~{S},2~{R})-2-(difluoromethyl)cyclopropyl]-7-fluoro-benzimidazol-2-yl]-11,11-difluoro-2-methyl-3,13,19-triazatetracyclo[11.5.2.0^ {5,7}.0^{16,20}]icosa-1(19),14,16(20),17-tetraen-4-one]"
3,0.01 µM,"COc1cc(C(=O)N2C[C@H](N)[C@@H]3CC[C@H]2C3)cc2nc(-c3cc4ccc5nc4n3CCCCCC[C@@](c3ccccn3)(C(F)F)C(=O)N[C@@H]5C)n(C)c12 [Example 890, (8~{S},11~{R})-17-[5-[(1~{S},4~{R},5~{R})-4-amino-2-azabicyclo[3.2.1]octane-2-carbonyl]-7-methoxy-1-methyl-benzimidazol-2-yl]-8-(difluoromethyl)-11-methyl-8-(2-pyridyl)-1,10,19-triazatricyclo [10.5.2.0^{15,18}]nonadeca-12(19),13,15(18), 16-tetraen-9-one]"
4,0.005 µM,"C[C@@H]1[C@H](N)CCCN1C(=O)c1cc(F)c2c(c1)nc(-c1cc3ccc4nc3n1CC(F)(F)CCC[C@]1(F)C[C@H]1C(=O)N[C@@H]4C)n2C1CC1 [Example 701, (2~{R},5~{S},7~{S})-14-[5-[(2~{R},3~{R})-3-amino-2-methyl-piperidine-1-carbonyl]-1-cyclopropyl-7-fluoro-benzimidazol-2-yl]-7,11,11-trifluoro-2-methyl-3,13,19-triazatetracyclo[11.5.2.0^ {5,7}.0^{16,20}]icosa-1(19),14,16(20),17-tetraen-4-one]"
5,0.025 µM,"C[C@H]1NC(=O)c2ccc(Cl)nc2CC[C@@H]2C[C@@H]2Cn2c(-c3nc4cc(C(=O)N5C[C@H](N)[C@@H]6CC[C@H]5C6)cc(F)c4n3C3CC3)cc3ccc1nc32 [Example 709, (3~{S),5~{R},16~{R})-22-[5-[(1~{S},4~{R},5~ {R})-4-amino-2-azabicyclo[3.2.1]octane-2-carbonyl]-1-cyclopropyl-7-fluoro-benzimidazol-2-yl]-10-chloro-16-methyl-1,9,15,24-tetrazapentacyclo[15.5.2.0^ {3,5}.0^{8,13}.0^{20,23}] tetracosa-8(13),9,11, 17(24),18,20(23),21-heptaen-14-one]"
6,0.028 µM,"COc1cc(C(=O)N2C[C@H](N)[C@@H]3CC[C@H]2C3)cc2nc(-c3cc4ccc5nc4n3CC(F)(F)CCCOC(C)(C)C(=O)N[C@@H]5C)n(C3CC3)c12 [Example 771, (11~{R})-17-[5-[(1~{S),4~{R}, 5~{R})-4-amino-2-azabicyclo [3.2.1]octane-2-carbonyl]-1-cyclopropyl-7-methoxy-benzimidazol-2-yl]-3,3-difluoro-8,8,11-trimethyl-7-oxa-1,10,19-triazatricyclo[10.5.2.0^ {15,18}]nonadeca-12(19),13,15(18),16-tetraen-9-one]"
7,0.061 µM,"C[C@H]1NC(=O)c2c(C3CC3)cc(Cl)nc2CCCCCn2c(-c3nc4cc(C(=O)N5C[C@H](N)[C@@H]6CC[C@H]5C6)cc(F)c4n3C3CC3)cc3ccc1nc32 [Example 911, (2~{R})-17-[5-[(1~{S},4~{R}, 5~{R})-4-amino-2-azabicyclo[3.2.1]octane-2-carbonyl]-1-cyclopropyl-7-fluoro-benzimidazol-2-yl]-8-chloro-6-cyclopropyl-2-methyl-3,9,16,22-tetrazatetracyclo[14.5.2.0^ {5,10}.0^{19,23}]tricosa-1(22),5(10),6,8,17,19(23),20-heptaen-4-one]"
8,0.082 µM,COc1cc(C(=O)N2C[C@H](N)[C@@H]3CC[C@H]2C3)cc2nc(-c3cc4ccc5nc4n3CCCCCCCN(C(C)=O)[C@@H]5C)n(C)c12 [Example 907]
9,0.052 µM,"COc1cc(C(=O)N2C[C@H](N)[C@@H]3CC[C@H]2C3)cc2nc(-c3cc4ccc5nc4n3CCCCCC[C@@](F)(c3cccc(Cl)n3)C(=O)N[C@@H]5C)n(C)c12 [Example 887, (8~{R},11~{R})-17-[5-[(1~{S),4~{R},5~{R})-4-amino-2-azabicyclo[3.2.1]octane-2-carbonyl]-7-methoxy-1-methyl-benzimidazol-2-yl]-8-(6-chloro-2-pyridyl)-8-fluoro-11-methyl-1,10,19-triazatricyclo[10.5.2.0^ {15,18}]nonadeca-12(19),13,15(18), 16-tetraen-9-one]"
